The source of these data is patent US10266548B2, “Substituted benzylindazoles for use as Bub1 kinase inhibitors in the treatment of hyperproliferative diseases” (Bayer Intellectual Property GmbH, priority 2011, dated 2019).

pIC50: −log10 of the molar value. Where two headings read alike, the source gives them in different places. Where only a bound is given, the exact number is not on record here.

In assay [1] the target is catalytic domain of human Bub1 (amino acids 704-1085) (Homo sapiens (Human), UniProt O43683). Description: Bub1 kinase assay (TR-FRET). The assay is classed as biochemical. As to conditions: 10 μM ATP, 1 μM peptide substrate; read-out: Biological Assay 1: Bub1 kinase assay median IC50. In outline:
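Phosphoserine product detected by TR-FRET (Eu-labeled anti-mouse IgG/anti-phosphoserine antibody to streptavidin-XL665) after 1 h at 22 °C. IC50 from 4-parameter logistic fit.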
A general note: In TR-FRET formats the signal depends on donor and acceptor labels being close together.

The test system of the next assay is HeLa cells. The assay is described as follows: Proliferation assay (HeLa cell line). The assay is classed as cell-based. The conditions noted are these: read-out: Biological Assay 2: Proliferation assay (HeLa cell line) median IC50.
In a further assay the test system is HeLa-MaTu-ADR cells. The assay is described as follows: Proliferation assay (HeLa-MaTu-ADR cell line). The assay is classed as cell-based. The conditions noted are these: 96 h, read-out: Biological Assay 2: Proliferation assay (HeLa-MaTu-ADR cell line) median IC50. As to the method: (§1) Cultivated tumor cells (cells were ordered from ATCC, except HeLa-MaTu and HeLa-MaTu-ADR, which were ordered from EPO-GmbH, Berlin) were plated at a density of 1000 to 5000 cells/well, depending on the growth rate of the respective cell line, in a 96-well multititer plate in 200 μL of their respective growth medium supplemented 10% fetal calf serum. After 24 hours, the cells of one plate (zero-point plate) were stained with crystal violet (see below), while the medium of the other plates was replaced by fresh culture medium (200 μl), to which the test substances were added in various concentrations (0 μM, as well as in the range of 0.001-10 μM; the final concentration of the solvent dimethyl sulfoxide was 0.5%). The cells were incubated for 4 days in the presence of test substances. Cell proliferation was determined by staining the cells with crystal violet: the cells were fixed by adding 20 μl/measuring point of an 11% glutaric aldehyde solution for 15 minutes at room temperature. After three washing cycles of the fixed cells with water, the plates were dried at room temperature. The cells were stained by adding 100 μl/measuring point of a 0.1% crystal violet solution (pH 3.0). After three washing cycles of the stained cells with water, the plates were dried at room temperature. The dye was dissolved by adding 100 μl/measuring point of a 10% acetic acid solution. […] The change of cell number, in percent, was calculated by normalization of the measured values to the aborbtion values of the zero-point plate (=0%) and the absorbtion of the untreated (0 μm) cells (=100%). The IC50 values were determined by means of a 4 parameter fit using the company's own software.

The next assay concerns NCI-H460 cells. The assay is described as follows: Proliferation assay (H460 cell line). The assay is classed as cell-based. The conditions noted are these: Homo sapiens, NCI-H460, 96 h, read-out: Biological Assay 2: Proliferation assay (H460 cell line) median IC50. As for the experimental part: as §1
Another assay deals with DU145 cells. Description: Proliferation assay (DU145 cell line). In kind it is cell-based. The conditions noted are these: Homo sapiens, DU-145, 96 h, read-out: Biological Assay 2: Proliferation assay (DU145 cell line) median IC50. As for the experimental part: as §1
A further assay has as its system Caco2 cells. Description: Proliferation assay (Caco2 cell line). In kind it is cell-based. The conditions noted are these: Homo sapiens, Caco-2, 96 h, read-out: Biological Assay 2: Proliferation assay (Caco2 cell line) median IC50. As to the method: as §1
The subject of another assay is B16F10 cells. The assay is described as follows: Proliferation assay (B16F10 cell line). In kind it is cell-based. The conditions noted are these: Mus musculus, B16-F10, 96 h, read-out: Biological Assay 2: Proliferation assay (B16F10 cell line) median IC50. As for the experimental part:
as §1

Setting [2] is: Homo sapiens, 96 h, 4 days, crystal violet.
Setting [3] is: HeLa-MaTu-ADR, 4 days, crystal violet.

`COc1cnc(-c2nn(Cc3c(F)ccc(OC)c3F)c3ccccc23)nc1Nc1ccncc1` [Example 2-4-1, 2-[1-(2,6-difluoro-3-methoxybenzyl)-1H-indazol-3-yl]-5-methoxy-N-(pyridin-4-yl)pyrimidin-4-amine]: the pIC50 in assay [1] was 8.35; in the assay on HeLa cells (setting [2]), 5.46; in the assay with HeLa-MaTu-ADR cells (setting [3]), 5.89; with NCI-H460 cells (H460, 4 days, crystal violet), 5.38; in the assay on DU145 cells (DU145, 4 days, crystal violet), 5.48; in the assay on Caco2 cells (Caco2, 4 days, crystal violet) it was 5.85. Further, in the assay with B16F10 cells (B16F10, 4 days, crystal violet), the pIC50 is 5.92.
With `COc1cnc(-c2nn(Cc3cc4c(cc3Br)OCO4)c3ccccc23)nc1Nc1ccncc1` [Example 2-4-3, 2-{1-[(6-bromo-1,3-benzodioxol-5-yl)methyl]-1H-indazol-3-yl}-5-methoxy-N-(pyridin-4-yl)pyrimidin-4-amine], the pIC50 was 7.85 in assay [1]; 5.41 with HeLa cells (setting [2]); 7.00 in the assay with HeLa-MaTu-ADR cells (setting [3]); 5.05 in the assay on NCI-H460 cells (H460, 4 days, crystal violet); 5.60 in the assay with DU145 cells (DU145, 4 days, crystal violet); 5.72 in the assay on Caco2 cells (Caco2, 4 days, crystal violet). Moreover, the pIC50 in the assay on B16F10 cells (B16F10, 4 days, crystal violet) is 5.82.
For `COc1cnc(-c2nn(Cc3c(Cl)cccc3Cl)c3ccccc23)nc1Nc1ccncc1` [Example 2-9-1, 2-[1-(2,6-dichlorobenzyl)-1H-indazol-3-yl]-5-methoxy-N-(pyridin-4-yl)pyrimidin-4-amine], the pIC50 in assay [1] was 8.17; in the assay with HeLa-MaTu-ADR cells, 5.09; in the assay on NCI-H460 cells, 5.00; with DU145 cells, 5.00; in the assay with Caco2 cells, 5.00; in the assay with B16F10 cells it was 5.02.
Consider `COC(=O)c1ccc(Cn2nc(-c3ncc(OC)c(Nc4ccncc4)n3)c3ccccc32)c(Cl)c1` [Example 2-11-1, methyl 3-chloro-4-({3-[5-methoxy-4-(pyridin-4-ylamino)pyrimidin-2-yl]-1H-indazol-1-yl}methyl)benzoate], for which the pIC50 was 8.15 in assay [1]; 6.54 in the assay with HeLa cells (setting [2]); 5.52 in the assay with HeLa-MaTu-ADR cells (setting [3]); 5.52 in the assay on NCI-H460 cells (H460, 4 days, crystal violet); 5.52 with DU145 cells (DU145, 4 days, crystal violet); 5.52 in the assay with Caco2 cells (Caco2, 4 days, crystal violet). Further, in the assay on B16F10 cells (B16F10, 4 days, crystal violet), the pIC50 is 5.54.
`COC(=O)c1ccc(CN(c2ccncc2)c2nc(-c3nn(Cc4ccc(C(=O)OC)cc4Cl)c4ccccc34)ncc2OC)c(Cl)c1` [Example 2-11-2, methyl 3-chloro-4-{[(2-{1-[2-chloro-4-(methoxycar-bonyl)benzyl]-1H-indazol-3-yl}-5-methoxypyrimidin-4-yl)(pyridin-4-yl)amino]methyl} benzoate]: the pIC50 in assay [1] was 6.27; in the assay on HeLa cells (Homo sapiens, 96 h) it was 5.47; in the assay with HeLa-MaTu-ADR cells it was 5.00; with NCI-H460 cells, 5.64; in the assay on DU145 cells, 5.44; in the assay on Caco2 cells it was 5.10. The pIC50 with B16F10 cells is 5.68.
With `COc1cnc(-c2nn(Cc3c(F)cc(Br)cc3F)c3ccccc23)nc1Nc1ccncc1` [Example 2-12-1, 2-[1-(4-bromo-2,6-difluorobenzyl)-1H-indazol-3-yl]-5-methoxy-N-(pyridin-4-yl)pyrimidin-4-amine], the pIC50 in assay [1] was 8.14; with HeLa cells (Homo sapiens, 96 h) it was 5.80; in the assay with HeLa-MaTu-ADR cells, 5.89; in the assay with NCI-H460 cells, 5.82; with DU145 cells, 5.80; in the assay with Caco2 cells, 5.85. For the same compound, the pIC50 with B16F10 cells was 5.85.
For the compound `COc1cnc(-c2nn(Cc3c(F)c(F)c(OC)c(F)c3F)c3ccccc23)nc1Nc1ccncc1` [Example 2-24-1, 5-methoxy-N-(pyridin-4-yl)-2-[1-(2,3,5,6-tetrafluoro-4-methoxybenzyl)-1H-indazol-3-yl]pyrimidin-4-amine], the pIC50 in assay [1] is 7.85; in the assay with HeLa cells (Homo sapiens, 96 h), 5.51; with HeLa-MaTu-ADR cells it was 5.89; with NCI-H460 cells it was 5.70; in the assay with DU145 cells, 5.89; in the assay with Caco2 cells, 5.82. The pIC50 in the assay on B16F10 cells was 5.85.
In the case of `CCCc1ccc(Cn2nc(-c3ncc(OC)c(Nc4ccncc4)n3)c3ccccc32)cc1` [Example 2-25-1, 5-methoxy-2-[1-(4-propylbenzyl)-1H-indazol-3-yl]-N-(pyridin-4-yl)pyrimidin-4-amine], the pIC50 in assay [1] was 7.82; in the assay on HeLa cells (setting [2]) it was 5.01; with HeLa-MaTu-ADR cells (setting [3]), 5.00; in the assay on NCI-H460 cells (H460, 4 days, crystal violet), 5.00; in the assay on DU145 cells (DU145, 4 days, crystal violet), 5.00; with Caco2 cells (Caco2, 4 days, crystal violet) it was 5.00. The pIC50 with B16F10 cells (B16F10, 4 days, crystal violet) is 5.00.
`COc1cnc(-c2nn(Cc3c(Cl)cc(OC(F)(F)F)cc3Cl)c3ccccc23)nc1Nc1ccncc1` [Example 2-26-1, 2-{1-[2,6-dichloro-4-(trifluoromethoxy)benzyl]-1H-indazol-3-yl}-5-methoxy-N-(pyridin-4-yl)pyrimidin-4-amine]: the pIC50 in assay [1] is 7.80; in the assay with HeLa cells (Homo sapiens, 96 h), 6.25; with HeLa-MaTu-ADR cells, 6.41; in the assay on NCI-H460 cells, 6.00; with DU145 cells, 6.28; in the assay with Caco2 cells it was 6.42. The pIC50 with B16F10 cells was 6.38.
`COc1cnc(-c2nn(Cc3ccc4c(C)cc(=O)oc4c3)c3ccccc23)nc1Nc1ccncc1` [Example 2-32-1, 7-({3-[5-methoxy-4-(pyridin-4-ylamino)pyrimidin-2-yl]-1H-indazol-1-yl}methyl)-4-methyl-2H-chromen-2-one]: the pIC50 was 7.54 in assay [1]; 5.38 with HeLa cells (setting [2]); 5.64 with HeLa-MaTu-ADR cells (setting [3]); 5.07 with NCI-H460 cells (H460, 4 days, crystal violet); 5.28 with DU145 cells (DU145, 4 days, crystal violet); 5.62 with Caco2 cells (Caco2, 4 days, crystal violet). Besides, in the assay with B16F10 cells (B16F10, 4 days, crystal violet), the pIC50 is 5.89.
As to `COc1ccc(Cn2nc(-c3ncc(OC)c(Nc4ccnc(F)c4)n3)c3ccccc32)cc1` [Example 34-1, N-(2-fluoropyridin-4-yl)-5-methoxy-2-[1-(4-methoxybenzyl)-1H-indazol-3-yl]pyrimidin-4-amine], the pIC50 in assay [1] was 6.64; in the assay with HeLa cells (Homo sapiens, 96 h), no more than 5.00.
For `COc1ccc(Cn2nc(-c3ncc(OC)c(Nc4cc(F)nc(F)c4)n3)c3ccccc32)cc1` [Example 34-2, N-(2,6-difluoropyridin-4-yl)-5-methoxy-2-[1-(4-methoxybenzyl)-1H-indazol-3-yl]pyrimidin-4-amine], in that order: 5.21 and no more than 5.00.
Regarding `COc1ccc(Cn2nc(-c3ncc(OC)c(Nc4ccncc4F)n3)c3ccccc32)cc1` [Example 34-3, N-(3-fluoropyridin-4-yl)-5-methoxy-2-[1-(4-methoxybenzyl)-1H-indazol-3-yl]pyrimidin-4-amine], the pIC50 in assay [1] is 7.55; in the assay on HeLa cells (Homo sapiens, 96 h), 5.06.
Consider `CCOc1cc(F)c(Cn2nc(-c3ncc(OCCS(C)(=O)=O)c(Nc4ccncc4)n3)c3ccccc32)c(F)c1` [Example 37-1, 2-[1-(4-ethoxy-2,6-difluorobenzyl)-1H-indazol-3-yl]-5-[2-(methylsulfonyl)ethoxy]-N-(pyridin-4-yl)pyrimidin-4-amine], for which the pIC50 in assay [1] is 8.24; in the assay on HeLa cells (setting [2]) it was 5.38.
For `CCOc1cc(F)c(Cn2nc(-c3ncc(OC)c(Nc4c(F)cncc4F)n3)c3ccccc32)c(F)c1` [Example 39-2], the pIC50 is 6.17 in assay [1] and no more than 5.00 with HeLa cells (4 days, crystal violet).
Take `CCOc1cc(F)c(Cn2nc(-c3ncc(OC)c(Nc4ccncc4)n3)c3c(C)cccc32)c(F)c1` [Example 42-1, 2-[1-(4-ethoxy-2,6-difluorobenzyl)-4-methyl-1H-indazol-3-yl]-5-methoxy-N-(pyridin-4-yl)pyrimidin-4-amine]: the values for the pIC50 (in assay [1]; in the assay with HeLa cells (setting [2])) were 8.17 and 5.44, respectively.
